These results are taken from PubChem BioAssay AID328 (DTP/NCI, 2004).

This test concerns BDF1 mice, P388 leukemia ip, median survival T/C. As to the kind of experiment: NCI In Vivo Anticancer Drug Screen. Data for tumor model P388 Leukemia (intraperitoneal) in B6D2F1 (BDF1) mice. The note with it: endpoint: median survival time, higher = longer survival. The method in brief:
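Steps: implant the tumour, treat one group with compound and another with vehicle, record survival, then divide treated by control.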

Where [1] appears, read: dose: 100.0 mg/kg/injection, schedule: Q01DX009 (ip), vehicle: saline with Tween-80.
[2] abbreviates: dose: 200.0 mg/kg/injection, schedule: Q04DX003 (ip), vehicle: saline with Tween-80.
Where [3] appears, read: dose: 200.0 mg/kg/injection, schedule: Q01DX009 (ip), vehicle: saline with Tween-80.
[4] abbreviates: dose: 400.0 mg/kg/injection, schedule: Q01DX009 (ip), vehicle: saline with Tween-80.

Values joined by “and” are separate entries in the source; they are usually repeats but may differ in a detail not shown here. Identical values can stand only once. Inconclusive results and toxic doses are left out.

Take `C[n+]1ccc(Nc2ccc(NC(=O)c3ccc(Nc4cc[n+](C)c5ccc(N)cc45)cc3N)cc2)cc1`: the T/C (dose: 0.5 mg/kg/injection, schedule: Q01DX010 (ip), vehicle: saline) was 150 % of control; the T/C (dose: 0.88 mg/kg/injection, schedule: Q04DX003 (ip), vehicle: saline with Tween-80) was 123 % of control; the T/C (dose: 1.0 mg/kg/injection, schedule: Q01DX010 (ip), vehicle: saline) is 160 % of control; the T/C (dose: 1.56 mg/kg/injection, schedule: Q01DX009 (ip), vehicle: Klucel (hydroxypropylcellulose) (HPC)) was 194 % of control; the T/C (dose: 2.0 mg/kg/injection, schedule: Q01DX009 (ip), vehicle: saline with Tween-80) is 150 % of control; the T/C (dose: 2.0 mg/kg/injection, schedule: Q01DX010 (ip), vehicle: saline) was 205 % of control. Besides, the T/C is 152 % of control (dose: 3.0 mg/kg/injection, schedule: Q04DX003 (ip), vehicle: saline with Tween-80); 252 % of control and 216 % of control (dose: 3.12 mg/kg/injection, schedule: Q01DX009 (ip), vehicle: Klucel (hydroxypropylcellulose) (HPC)); 169 % of control (dose: 3.12 mg/kg/injection, schedule: Q01DX009 (ip), vehicle: saline); 154 % of control (dose: 3.6 mg/kg/injection, schedule: Q04DX003 (ip), vehicle: saline with Tween-80); 229 % of control (dose: 4.0 mg/kg/injection, schedule: Q01DX009 (ip), vehicle: saline with Tween-80); 300 % of control (dose: 4.0 mg/kg/injection, schedule: Q01DX010 (ip), vehicle: saline). Further, the T/C is 168 % of control (dose: 5.56 mg/kg/injection, schedule: Q04DX003 (ip), vehicle: saline); 159 % of control (dose: 5.6 mg/kg/injection, schedule: Q04DX003 (ip), vehicle: saline with Tween-80); 266 % of control and 267 % of control (dose: 6.25 mg/kg/injection, schedule: Q01DX009 (ip), vehicle: Klucel (hydroxypropylcellulose) (HPC)); 172 % of control (dose: 6.25 mg/kg/injection, schedule: Q01DX009 (ip), vehicle: saline); 300 % of control (dose: 6.25 mg/kg/injection, schedule: Q01DX010 (ip), vehicle: saline); 163 % of control (dose: 6.25 mg/kg/injection, schedule: Q04DX003 (ip), vehicle: saline). Further, the T/C is, setting by setting: (dose: 8.0 mg/kg/injection, schedule: Q01DX009 (ip), vehicle: saline with Tween-80) 250 % of control; (dose: 8.3 mg/kg/injection, schedule: Q04DX003 (ip), vehicle: saline with Tween-80) 177 % of control; (dose: 8.33 mg/kg/injection, schedule: Q04DX003 (ip), vehicle: saline) 227 % of control; (dose: 12.5 mg/kg/injection, schedule: Q01DX009 (ip), vehicle: Klucel (hydroxypropylcellulose) (HPC)) 267 % of control and 199 % of control; (dose: 12.5 mg/kg/injection, schedule: Q01DX009 (ip), vehicle: saline) 172 % of control; (dose: 12.5 mg/kg/injection, schedule: Q01DX010 (ip), vehicle: saline) 300 % of control. The T/C was 209 % of control (dose: 12.5 mg/kg/injection, schedule: Q04DX003 (ip), vehicle: saline with Tween-80); 200 % of control and 218 % of control and 186 % of control (dose: 12.5 mg/kg/injection, schedule: Q04DX003 (ip), vehicle: saline); 250 % of control (dose: 16.0 mg/kg/injection, schedule: Q01DX009 (ip), vehicle: saline with Tween-80); 263 % of control (dose: 18.7 mg/kg/injection, schedule: Q04DX003 (ip), vehicle: saline with Tween-80); 116 % of control (dose: 25.0 mg/kg/injection, schedule: Q01DX009 (ip), vehicle: Klucel (hydroxypropylcellulose) (HPC)); 172 % of control (dose: 25.0 mg/kg/injection, schedule: Q01DX009 (ip), vehicle: saline). For the same molecule, the T/C was 272 % of control and 254 % of control (dose: 25.0 mg/kg/injection, schedule: Q04DX003 (ip), vehicle: saline); 272 % of control (dose: 26.0 mg/kg/injection, schedule: Q04DX003 (ip), vehicle: saline with Tween-80); 112 % of control (dose: 32.0 mg/kg/injection, schedule: Q01DX009 (ip), vehicle: saline with Tween-80); 272 % of control (dose: 40.0 mg/kg/injection, schedule: Q04DX003 (ip), vehicle: saline with Tween-80); 106 % of control (dose: 50.0 mg/kg/injection, schedule: Q01DX009 (ip), vehicle: saline); 90 % of control (dose: 50.0 mg/kg/injection, schedule: Q01DX010 (ip), vehicle: saline). Also, the T/C (dose: 50.0 mg/kg/injection, schedule: Q04DX003 (ip), vehicle: saline) is 310 % of control and the T/C (dose: 60.0 mg/kg/injection, schedule: Q04DX003 (ip), vehicle: saline with Tween-80) was 272 % of control.
In the case of `Nc1nc(SCc2ccccc2)c2[nH]cnc2n1`, the T/C is, setting by setting: (dose: 8.0 mg/kg/injection, schedule: Q01DX010 (ip), vehicle: saline) 90 % of control and 100 % of control; (dose: 16.0 mg/kg/injection, schedule: Q01DX010 (ip), vehicle: saline) 90 % of control and 105 % of control; (dose: 32.0 mg/kg/injection, schedule: Q01DX010 (ip), vehicle: saline) 90 % of control and 110 % of control; (dose: 64.0 mg/kg/injection, schedule: Q01DX010 (ip), vehicle: saline) 104 % of control and 120 % of control.
With `N#CCCN1c2ccccc2Sc2ccccc21`, the T/C (dose: 50.0 mg/kg/injection, schedule: Q01DX009 (ip), vehicle: Klucel (hydroxypropylcellulose) (HPC)) is 110 % of control; the T/C (dose: 100.0 mg/kg/injection, schedule: Q01DX009 (ip), vehicle: Klucel (hydroxypropylcellulose) (HPC)) is 105 % of control; the T/C (dose: 200.0 mg/kg/injection, schedule: Q01DX009 (ip), vehicle: Klucel (hydroxypropylcellulose) (HPC)) is 110 % of control.
Regarding `CC1CN1P(=S)(N1CCCC1)N1CC1C` (stereo unspecified), the T/C (dose: 17.8 mg/kg/injection, schedule: Q01DX009 (ip), vehicle: saline with Tween-80) is 112 % of control; the T/C (dose: 26.6 mg/kg/injection, schedule: Q01DX009 (ip), vehicle: saline with Tween-80) is 114 % of control; the T/C (dose: 40.0 mg/kg/injection, schedule: Q01DX009 (ip), vehicle: saline with Tween-80) is 168 % of control; the T/C (dose: 50.0 mg/kg/injection, schedule: Q01DX009 (ip), vehicle: saline with Tween-80) is 150 % of control; the T/C (dose: 60.0 mg/kg/injection, schedule: Q01DX009 (ip), vehicle: saline with Tween-80) was 214 % of control; the T/C under setting [1] was 170 % of control.
`COc1cc(C=Nc2cc(Cl)cc(Cl)c2)ccc1N(CCCl)CCCl`: the T/C was 163 % of control (dose: 132.0 mg/kg/injection, schedule: Q04DX003 (ip), vehicle: saline with Tween-80); 177 % of control under setting [2]; 177 % of control (dose: 300.0 mg/kg/injection, schedule: Q04DX003 (ip), vehicle: saline with Tween-80).
`COc1ccc(C2=CCCCC2)cc1`: the T/C under setting [1] was 103 % of control; the T/C (dose: 100.0 mg/kg/injection, schedule: Q04DX003 (ip), vehicle: saline with Tween-80) is 104 % of control; the T/C under setting [3] is 103 % of control; the T/C under setting [2] is 104 % of control; the T/C (dose: 400.0 mg/kg/injection, schedule: Q04DX003 (ip), vehicle: saline with Tween-80) was 95 % of control.
In the case of `CC1OCC2OC(C)OC(C(COC(c3ccccc3)(c3ccccc3)c3ccccc3)OS(C)(=O)=O)C2O1` (stereo unspecified), the T/C was 100 % of control (dose: 100.0 mg/kg/injection, schedule: Q04DX003 (ip), vehicle: saline); 104 % of control (dose: 200.0 mg/kg/injection, schedule: Q04DX003 (ip), vehicle: saline); 108 % of control (dose: 400.0 mg/kg/injection, schedule: Q04DX003 (ip), vehicle: saline).
Turning to `Cc1ccc2c(c1)nc1c3ccccc3nc(-c3ccccc3N)n21`, the T/C by setting is: under setting [1], 97 % of control; under setting [3], 115 % of control; under setting [4], 108 % of control.
Regarding `FC(F)(F)C(Cl)(Cc1ccc2ccccc2n1)C(F)(F)F`, the T/C is, setting by setting: (dose: 100.0 mg/kg/injection, schedule: Q01DX001 (ip), vehicle: saline with Tween-80) 100 % of control; (dose: 200.0 mg/kg/injection, schedule: Q01DX001 (ip), vehicle: saline with Tween-80) 100 % of control; (dose: 400.0 mg/kg/injection, schedule: Q01DX001 (ip), vehicle: saline with Tween-80) 104 % of control.
For `CC1(C)OC2OC(COC(=O)c3ccccc3)C(=O)C2O1` (stereo unspecified), the T/C by setting is: under setting [1], 92 % of control; under setting [3], 92 % of control; under setting [4], 101 % of control.
